Test results reported in patent US20250255888A1, “Use of Baby Aspirin with Diphenhydramine or other Sleep Aids” (priority 2024, published 2025).
Counter-ions that a name gives are not always drawn.

Experiment: Self-reported use as a sleep aid at night: sleep and morning aftereffects (applicant and two friends)
Type: in vivo
Settings: patent applicant, taken for sleep, morning after; worse with less than seven hours of sleep
Excerpt: They further recommended same to two of their close friends who had complained of same aftereffects of Benadryl.
When aspirin was used with other sleep aids that contain diphenhydramine as an active ingredient, similar result was obtained.

CN(C)CCOC(c1ccccc1)c1ccccc1 [Benadryl, diphenhydramine HCL]
aftereffects in the morning (poor sleep quality, lingering drowsiness, difficulty concentrating): would experience some of the aftereffects of Benadryl such as poor sleep quality, lingering drowsiness or difficulty concentrating
